Test results taken from patent US20260151376A1, “COMBINATION THERAPY FOR THE TREATMENT OF CANCER” (INSTITUT NATIONAL DE LA SANTÉ ET DE LA RECHERCHE MÉDICALE, priority 2022, published 2026).

Experiments:
CT26 tumors [1] = test: CT26 allografts experiment, HA15 and anti-PD1 (Example 1); type: in vivo; settings: single treatment; CT26 allograft in BALB/c mice; HA15 0.7 mg/mouse/day IP; anti-PD1 4 injections of 0.125 mg/mouse
Procedure: FIG. 1: CT26 cells (5.104) are injected subcutaneously in Balb/C mice. As soon as the tumors reach 50 mm^3, mice are randomly distributed into different experimental groups and treated daily (intraperitoneal) with Vehicle or HA15 (35 mg/kg) and twice a week during two weeks with anti-PD1 (6.25 mg/kg) or PBS. A: Individual tumor growth curves. B: Survival curves. Mice are euthanized when their tumor reach 800 mm^3. A log-rang (Mantel Cox) test was performed to compare statistically the survival in the different experimental groups. Ns=non-significant, *: p≤0.05, **: p≤0.01, ***: p≤0.001.
CT26 Allografts Experiment Female BALB/cOlaHsd mice were obtained at 5 weeks of age from Envigo Laboratory. One week later, these mice were inoculated subcutaneously with CT26 cells (5×10^5 cells/mouse). As soon as its tumor reach 50 mm^3, each mouse was allocated in the different experimental group following a randomization table created with the “Graphpad Quickcalcs” tool (7 mice/group). […] Tumor volumes were determined using the equation Volume=(Length×(Width)^2)/2. […]

CHOP = test: Intra-tumoral proteins analysis by western blot: CHOP; type: in vivo, mice
IFNγ = test: Intra-tumoral proteins analysis by western blot and ELISA: IFNγ; type: in vivo, mice
Procedure: FIG. 2: HA15 induces in vivo the expression of CHOP and IFNg in mice tumors: tumors were harvested from the mice after HA15 treatment and crushed into lysis buffer to get protein lysates. (A). Tumor lysates were analyzed by western blotting with CHOP, IFNγ and HSP90 antibodies. Densitometric analyses were then performed on the radiogram presented here thanks to the ImageJ (Fiji) program. The signal intensity of the target protein is weighted by that of the HSP90 control. (B) The intra-tumoral […] was dosed in the lysates by a Mouse IFN-g ELISA kit. Mann-Whitney test was performed to compare statistically the protein expressions in the two different groups.
Pieces of tumor were crushed thanks to the “Precellys 24 Tissue Homogenizer” into CK Mix Tubes (#P000918-LYSK0, Bertin Technologies) in presence of protein lysis buffer containing 50 mmol/l Tris-HCl (pH 7.5), 15 mmol/l, NaCl, 1% Triton X-100, and 1× protease and phosphatase inhibitors. Tumor lysates were then centrifuged to remove cells debris.
For western Blot, tumor lysates are prepared in Laemmli buffer. Briefly, tumor lysates (30 μg) were separated by SDS-PAGE, transferred onto a polyvinylidene fluoride membrane (Millipore), and then exposed to the appropriate antibodies. The antibody directed against IFN-gamma was purchased from Abcam (ab133566). Proteins were visualized with the ECL System from Amersham. […]

CT26 tumors [2] = test: CT26 tumor model, oral HA15 and anti-PDL1 (Example 2); type: in vivo, mice
Procedure: Mice: A total of 60 female BALB/C mice aged 5 weeks and weighted between 15-19 g, were ordered from Envigo. These had one week of acclimatation in C3M animal facility. Animals were housed in IVC cages (5 per cage) with individual mice identified by ear tag. All animals were allowed free access to a standard certified commercial diet and sanitised water during the study. The holding room was maintained under standard conditions: 18-24° C., 55-70% humidity and a 12h light/dark cycle. One week before dosing start, 2 animals died while blood sampling.
58 Mice were randomly assigned into the following treatment groups:
Cells: CT26 cell lines were thawed 2 weeks before mice arrival. These were cultured in RPMI medium supplemented with 10% FBS, 1% Penicillin/streptomycin and 2% sodium pyruvate. Cells were expanded 48 hrs prior to the subcutaneous injection in 5×T175 flasks at concentration of 0.8×10^6 cells. This concentration allows cells to be 70-80% confluency at the day of the injection. Briefly, cells were washed with PBS, detached from the flasks using 3 ml of trypsin, collected with RPMI medium and centrifuged at 300 g for 5 min. These were then resuspended in PBS, counted and 0.5×10^6 cells/mouse ([…] in total for 80 mice) were taken and re-centrifuged to be resuspended in 100 μl/mouse of PBS ready to be subcutaneously injected (8 ml in total for 80 mice). […]

[3] = liver, after HA15 treatment (data not shown)

`CC(=O)Nc1nc(-c2cccc(NS(=O)(=O)c3cccc4c(N(C)C)cccc34)c2)cs1` [HA15] was tested, and the complete response (CT26 tumors [1]) was 14%, the CHOP expression (CHOP; CT26 tumors harvested after HA15 treatment, western blot) was “induces” and the CHOP expression (CHOP; [3]) was “no variation”. For the same molecule, the IFNγ expression (IFNγ; CT26 tumors harvested after HA15 treatment, western blot and ELISA) was “induces”, the IFNγ expression (IFNγ; [3]) was “no variation” and the tumor volume (CT26 tumors [2]; after 13 days of daily oral administration, statistically significant compared with vehicle group) was “decreased”. For the same molecule, the tumor weight (CT26 tumors [2]; after mice termination at day 13, confirms the reduction in tumor growth) was “confirmed”.
